From US20250108050A1, “COMBINATION OF EGFR INHIBITOR AND MEK INHIBITOR FOR USE IN THE TREATMENT OF NRAS MUTATED CANCER” (ASTRAZENECA AB, priority 2014, published 2025)

Key:
active NRAS [1] = experiment: RAS activation assay (GST-RAS binding domain pull down, western blot) in resistant PC-9 cells with E63K or G12V NRAS; format: cell-based, human; conditions: mutant NRAS (E63K or G12V) resistant PC-9 cells; 160 nM for 2 hours
Method: (§1) PC9 and PC9 AZD9291 resistant cells were cultured in media containing no AZD9291 for 4 days. Cells were then plated into 6 well plates and serum starved overnight. The following day the cells were treated for 2 hours with media supplemented with or without 160 nM AZD9291. Lysates were prepared and active NRAS isolated using a GST-RAS binding domain pull down assay (Thermo Scientific). Pull down lysates were analysed by western blot using an NRAS specific antibody.

PC9 cells [2] = experiment: cells; conditions: Homo sapiens, PC-9, read-out: concentration required to inhibit growth of PC9 cells by 50% (EC50)
Method: PC9 cells were seeded at 5×10^5 cells in multiple fresh T75 flasks in growth media and incubated at 37° C., 5% CO2.

PC9 cells [3] = experiment: Growth inhibition of PC9 cells over expressing E63K mutant NRAS (sytox green); format: cell-based, human; conditions: 100 nM AZD9291 or 300 nM gefitinib, 96 hours, vs control construct
Method: PC9 cells were transfected with control DNA construct, pcDNA 3.1+ control, or a construct designed to express E63K mutant NRAS, pcDNA 3.1+/NRAS E63K, (Life Technologies Ltd.). For 96 hour expression MaxCyte transfection technology was used to electroporate the PC9 cells. PC9 cells were passaged the day before the transfection. On the day of the transfection cells were harvested and resuspended at 9×10^7 cells per 600 μL MaxCyte buffer. 100 μL of cell suspension was transferred to a MaxCyte cuvette and the cells electroporated with 20 μg DNA construct. Following electroporation the cells for each condition were transferred to a 6 well plate and incubated at 37° C. for 30 minutes after which they were seeded in a 6 well plate at 4×10^5 cells per well. Following over night incubation the cells were harvested and replated in 384 well plate at 1000 cells/well. […] A live cell number was determined using the sytox green method as described hereinbefore.

active NRAS [4] = experiment: RAS activation assay (GST-RAS binding domain pull down, western blot) in parental PC-9 cells; format: cell-based, human; conditions: 160 nM for 2 hours
Method: as §1

[5] = test system: PC9_IR4_9291R_3 (NRAS WT gain); experiment: Sytox Green live cell number assay, selumetinib titration; format: cell-based; conditions: Homo sapiens, with originating EGFR inhibitor, 72 hours
Method: (§2) The effects of a panel of canonical pathway inhibitors on cell growth and survival was measured using a cell assay using Sytox Green staining as an end point.
(§3) Cell lines were plated in 384 well plates at 1000 cells per well in 70 μL per well of RPMI media containing 10% foetal calf serum, 2 mM L-glutamine and originating EGFR inhibitor.
(§4) The cells were allowed to attach overnight at 37° C., 5% CO2. The following day titrations of test compound were added to the assay plates using an Echo Liquid Handler Labcyte (California, USA) and the treated cells incubated for a further 72 hours at 37° C., 5% CO2. Each compound was tested as an 11 point dose response with a top concentration of 10 μM and 1 in 3 dilutions. Following 72 hours incubation of the compound treated plates, 5 μL of 2 μM SYTOX Green Nucleic Acid Stain, Life Technologies (Paisley, UK) was added per well and the plates incubated at room temperature for one hour. The number of fluorescent cells per well was measured on the Acumen TTP LabTech Ltd. (Melbourn, UK) this number representing the dead cell count. 10 μL of 0.25% Saponin Sigma (Dorset, UK) was added per well and the plates incubated over night at room temperature. The total number of fluorescent cells per well was acquired on the Acumen. The number of dead cells was subtracted from the total number of cells and the live cell number plotted to determine EC50 values from dose response curves.

PC9_IRLR (NRAS E63K) = experiment: as above; format: cell-based; conditions: Homo sapiens, with originating EGFR inhibitor, 72 hours
Method: as §2, §3, §4

[6] = test system: PC9_IR4_9291R_2 (NRAS WT gain); experiment: as above; format: cell-based; conditions: Homo sapiens, with originating EGFR inhibitor, 72 hours
Method: as §2, §3, §4

PC9_IRGM (NRAS WT) = experiment: as above; format: cell-based; conditions: Homo sapiens, with originating EGFR inhibitor, 72 hours
Method: as §2, §3, §4

[7] = test system: PC9_afatinib_5 (NRAS gain); experiment: as above; format: cell-based; conditions: Homo sapiens, with originating EGFR inhibitor, 72 hours
Method: as §2, §3, §4

PC9 (NRAS WT) = experiment: as above; format: cell-based; conditions: Homo sapiens, PC9 (NRAS WT) parental, 72 hours
Method: as §2, §3, §4

[8] = test system: PC9_9291R_LOB1 (NRAS E63K); experiment: as above; format: cell-based; conditions: Homo sapiens, with originating EGFR inhibitor, 72 hours
Method: as §2, §3, §4

PC9_9291R_3 (NRAS G12V) = experiment: as above; format: cell-based; conditions: Homo sapiens, with originating EGFR inhibitor, 72 hours
Method: as §2, §3, §4

[9] = test system: PC9_9291R_LOB3 (NRAS G12R); experiment: as above; format: cell-based, human
Method: as §2, §3
as §4, with “The total number of fluorescent cells per well was acquired on the Acumen. The number of dead cells was subtracted from the total number of cells and the live cell number plotted to determine EC50 values from dose response curves.” left out
An AZD9291-resistant PC9 cell line was prepared using standard methods as illustrated hereinbefore. A range of such resistant cell populations were cultured and analysed.

NRAS = experiment: siRNA knockdown, western blot of NRAS expression; format: cell-based, human; conditions: 20 nM siRNA, 48 hours; PC9, PC9 gefitinib-resistant and PC9 AZD9291-resistant cells
Method: (§5) PC9, PC9 gefitinib-resistant and PC9 AZD9291-resistant cells were plated at 5×10^5 cells per well in 6 well plates in 2 mls per well of growth media supplemented with EGFR inhibitor where appropriate (resistant cells were grown in the presence of EGFR inhibitor). The cells were incubated over night at 37° C., 5% CO2. The following day the cells were treated with a final concentration of 20 nM of siRNA from Dharmacon as detailed in Table 7.
(§6) Each siRNA construct was prepared in Optimem (Life Technologies) media using RNA iMAX (Invitrogen) as transfection reagent. For each well: 2.5 μl of siRNA (20 μM stock) was mixed with 250 μL of Optimem; and 2.5 μL of RNA iMAX was mixed with 250 μL of Optimem. The 2 solutions were mixed together by pipetting and allowed to stand for 5 minutes at room temperature. The final 500 μL solution was then pipetted into the appropriate 2 mL of growth media in the 6 well plates. The plates were swirled gently and further incubated over night at 37° C., 5% CO2. The following day each well of cells was harvested and the cell number counted.
(§7) The following day, lysates were prepared from the 6 well plates so that knockdown of protein expression could be assessed following 48 hours treatment with siRNA. The lysates were analysed by western blot for levels of: phosphorylated EGFR, phosphorylated ERK, NRAS and KRAS. […]

KRAS = experiment: siRNA knockdown, western blot of KRAS expression; format: cell-based, human; conditions: 20 nM siRNA, 48 hours; PC9, PC9 gefitinib-resistant and PC9 AZD9291-resistant cells
Method: as §5, §6, §7

Compound: C=CC(=O)Nc1cc(Nc2nccc(-c3cn(C)c4ccccc34)n2)c(OC)cc1N(C)CCN(C)C [AZD9291, N-(2-{2-dimethylaminoethyl-methylamino}-4-methoxy-5-{[4-(1-methylindol-3-yl)pyrimidin-2-yl]amino}phenyl)prop-2-enamide]
- active NRAS (active NRAS [1]): not associated with corresponding decrease in active NRAS
- phosphorylated EGFR (active NRAS [1]): decrease
- EC50 (PC9 cells [2]): 10 nM
- cell growth inhibition when cells over expressed E63K mutant NRAS (PC9 cells [3]): reduced
- active NRAS (active NRAS [4]): decrease
- phosphorylated EGFR (active NRAS [4]): decrease

Compound: Cn1cnc2c(F)c(Nc3ccc(Br)cc3Cl)c(C(=O)NOCCO)cc21 [Selumetinib, 5-[(4-bromo-2-chlorophenyl)amino]-4-fluoro-N-(2-hydroxyethoxy)-1-methyl-1H-benzimidazole-6-carboxamide]
- EC50 [5]: 130 nM
- EC50 (PC9_IRLR (NRAS E63K)): 620 nM
- EC50 [6]: 540 nM
- EC50 (PC9_IRGM (NRAS WT)): 7240 nM
- EC50 [7]: 890 nM
- EC50 (PC9 (NRAS WT)): 6950 nM
- EC50 [8]: 167 nM
- EC50 (PC9_9291R_3 (NRAS G12V)): 1400 nM
- increased sensitivity as compared to the parental cell line ([9]; AZD9291-resistant PC9 population with NRAS G12R vs parental cell line): > 5 fold
- EC50 ([9]; Homo sapiens, PC9_9291R_LOB3 (NRAS G12R), with originating EGFR inhibitor, 72 hours): 140 nM

Compound: KRAS_1: siRNA from Dharmacon, J-005069-10, sequence GAAGUUAUGGAAUUCCUUU, SEQ ID NO: 16 (listed as RNA, chemistry not given here; listed as Homo sapiens)
- NRAS expression (western blot) (NRAS): no affect
- KRAS expression (western blot) (KRAS): knockdown
